Data on 5 compounds can be found in patent publication US20250114369A1, “COMPOUNDS AND METHODS FOR TREATMENT OF VIRAL INFECTIONS” (Gilead Sciences, Inc., priority 2023, published 2025).

A short description of data set [1]: in vitro. In kind it is cell-based. As to conditions: human. The method, then:
Cytotoxicity of the compounds was determined in uninfected cells using the cell viability reagent in a similar fashion as described before for other cell types (Cihlar et al., Antimicrob Agents Chemother. 2008, 52(2):655-65). HEp-2 (1.5×10^3 cells/well) and MT-4 (2×10^3 cells/well) cells were plated in 384-well plates and incubated with the appropriate medium containing 3-fold serially diluted compound ranging from 15 nM to 100,000 nM. Cells were cultured for 4-5 days at 37° C. Following the incubation, the cells were allowed to equilibrate to 25° C., and cell viability was determined by adding Cell-Titer Glo viability reagent. The mixture was incubated for 10 min, and the luminescence signal was quantified using an Envision plate reader. Untreated cell and cells treated at 2 μM puromycin (Sigma, St. Louis, MO) serve as […] cell viability control, respectively. The percent of cell viability was calculated for each tested compound concentration relative to the 0% and 100% controls and the CC50 value was determined by non-linear regression as a compound concentration reducing the cell viability by […].

Data set [2] concerns SARS Coronavirus 2 recombinant with NanoLuc (SARS-CoV2-NLuc). Put plainly: organism not typed. It is filed as cell-based. The following applies: 48 h.
Data set [3] can be described thus: in vitro. It is filed as in vitro ADME. The following applies: human, s9, pH 7.4. The method, then: Duplicate aliquots of test compound or positive control substrate (GS-7340) were added to S9 stock diluted with 100 mM potassium phosphate buffer, pH 7.4, to obtain a protein concentration of 2.4 mg/mL. The S9 metabolic reactions were initiated by the addition of the substrates to the S9 reaction mixture to a final concentration of 2 μM. At 2, 12, 25, 45, 65 and 90 min, 25 μL aliquots of the reaction mixture were transferred to plates containing 225 μl of IS/Q solution. After quenching, the plates were centrifuged at 3000×g for 30 minutes, and 150 μL aliquots of each supernatant were diluted with 150 μL water. Aliquots (10 μL) of the diluted supernatant were analyzed on a Thermo Q-Exactive mass spectrometer as described below. Quantification of test compounds and controls was performed by analyte/internal standard peak area ratio (PAR) values measured on a Thermo Q-Exactive mass spectrometer coupled to a Dionex UltiMate 3000 HPLC with a Leap Technologies HTC PAL autosampler. The column used was a Thermo Hypersil GOLD (1.9 μm particle size, 2.1×50 mm). Mobile phase A consisted of […] formic acid in water. Mobile phase B consisted of 0.1% (v/v) formic acid in acetonitrile. Elution of analytes was achieved by a series of linear gradients of acetonitrile in water containing 0.1% (v/v) formic acid. The mass spectrometer was calibrated on a weekly basis and mass tolerance of 5 ppm was used.

Data set [4] is described as follows: in vitro. In kind it is in vitro ADME. The following applies: human, s9, pH 7.4. The protocol: Duplicate aliquots of test compound or positive control substrate (GS-7340) were added to PMSF-free Intestinal S9 fractions diluted with 100 mM phosphate buffered saline, pH 7.4, to obtain a protein concentration of 1.0 mg/mL. The S9 metabolic reactions were initiated by the addition of the substrates to the S9 reaction mixture to a final concentration of 2 μM. At 0, 10, 20, 30, 60 and 120 min, 25 μL aliquots of the reaction mixture were transferred to plates containing 225 μl of IS/Q solution. After quenching, the plates were centrifuged at 3000×g for 30 minutes, and 150 μL aliquots of each supernatant were diluted with 150 μL water. Aliquots (10 μL) of the diluted supernatant were analyzed on a Thermo Q-Exactive mass spectrometer as described below. Quantification of test compounds and controls was performed by analyte/internal standard peak area ratio (PAR) values measured on a Thermo Q-Exactive mass spectrometer coupled to a Dionex UltiMate 3000 HPLC with a Leap Technologies HTC PAL autosampler. The column used was a Thermo Hypersil GOLD (1.9 μm particle size, 2.1×50 mm). Mobile phase A consisted of […] formic acid in water. Mobile phase B consisted of 0.1% (v/v) formic acid in acetonitrile. Elution of analytes was achieved by a series of linear gradients of acetonitrile in water containing 0.1% (v/v) formic acid. The mass spectrometer was calibrated on a weekly basis and mass tolerance of 5 ppm was used.
This is another data set of the same source.

The test system of data set [5] is Respiratory syncytial virus recombinant with luciferase (RSV-Luc5). Briefly: microbe, parasite or virus in culture. In kind it is cell-based. As to conditions: human respiratory syncytial virus, NHBE, 72 h, read-out: RSV NHBE EC50 (nM).
The format of data set [6] is in vitro ADME. As to conditions: 2 μM. The protocol:
Duplicate aliquots of plasma were warmed to 37° C. and the metabolic reactions initiated by the addition of test compound (6 μL of 0.1 mM DMSO stock) or plasma stability standard (GS-7340) to obtain a final substrate concentration of 2 μM. At 0.05, 0.5, 1, 2, 3 and 4 hr, 25 μL aliquots of the reaction mixture were transferred to plates containing 225 μl of IS/Q quenching solution. After quenching, the plates were centrifuged at 3000×g for 30 minutes, and 150 μL supernatant was diluted with 150 μL water. Aliquots (10 μL) of the diluted supernatant were analyzed on a Thermo Q-Exactive mass spectrometer as described below. Quantification of test compounds and controls was performed by analyte/internal standard peak area ratio (PAR) values measured on a Thermo Q-Exactive mass spectrometer coupled to a Dionex UltiMate 3000 HPLC with a Leap Technologies HTC PAL autosampler. The column used was a Thermo Hypersil GOLD (1.9 μm particle size, 2.1×50 mm). Mobile phase A consisted of […] formic acid in water. Mobile phase B consisted of 0.1% (v/v) formic acid in acetonitrile. Elution of analytes was achieved by a series of linear gradients of acetonitrile in water containing 0.1% (v/v) formic acid. The mass spectrometer was calibrated on a weekly basis and mass tolerance of 5 ppm was used.

Where only a bound is given, the exact number is not on record here.
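For CC50 in this document: uninfected MT-4 cells over 4-5 days by CellTiter-Glo.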

`N#C[C@@]1(c2ccc3c(N)ncnn23)O[C@H](COC(=O)SC2CCCC2)[C@@H](O)[C@H]1O` [Compound 16, [(2R,3S,4R,5R)-5-(4-aminopyrrolo[2,1-f][1,2,4]triazin-7-yl)-5-cyano-3,4-dihydroxy-tetrahydrofuran-2-yl]methyl cyclopentylsulfanylformate]: in the data set “in vitro [1]”, the midpoint of cytotoxicity, the CC50, lay at 49.9 µM. Further, the half-maximal effective concentration (EC50) is 8.75 µM in data set [2] and 2810 nM in data set [5]. Further, the half-life at 2 μM stood at 6.2 min in “in vitro [3]” and 3.4 min in the data set “in vitro [4]”.
`CCCSC(=O)OC[C@H]1O[C@@](C#N)(c2ccc3c(N)ncnn23)[C@H](OC(C)=O)[C@@H]1OC(C)=O` [Compound 22, [(2R,3R,4R,5R)-4-acetoxy-5-(4-aminopyrrolo[2,1-f][1,2,4]triazin-7-yl)-5-cyano-2-(propylsulfanylcarbonyloxymethyl)tetrahydrofuran-3-yl]acetate] showed a half-maximal cytotoxic concentration (CC50) in “in vitro [1]” of more than 50 µM. Further, the EC50 in data set [2] came to 9.83 µM; in data set [5], 3320 nM. Further, the results for the half-life at 2 μM in “in vitro [3]” and in “in vitro [4]” were not above 2 min and 1.59 min, respectively.
In the case of `CCSC(=O)OC[C@H]1O[C@@](C#N)(c2ccc3c(N)ncnn23)[C@H](OC(C)=O)[C@@H]1OC(C)=O` [Compound 23, [(2R,3R,4R,5R)-4-acetoxy-5-(4-aminopyrrolo[2,1-f][1,2,4]triazin-7-yl)-5-cyano-2-(ethylsulfanylcarbonyloxymethyl)tetrahydrofuran-3-yl]acetate], the 50% cytotoxic concentration (CC50) in “in vitro [1]” is more than 50 µM. The EC50 in data set [2] came to 12.4 µM; in data set [5], 3810 nM. Besides, the half-life at 2 μM in “in vitro [3]” is not above 2 min; in “in vitro [4]”, 0.885 min.
The corresponding values for `CC(=O)O[C@H]1[C@@H](OC(C)=O)[C@](C#N)(c2ccc3c(N)ncnn23)O[C@@H]1COC(=O)SC(C)(C)C` [Compound 24, [(2R,3R,4R,5R)-4-acetoxy-5-(4-aminopyrrolo[2,1-f][1,2,4]triazin-7-yl)-2-(tert-butylsulfanylcarbonyloxymethyl)-5-cyano-tetrahydrofuran-3-yl]acetate] are more than 50 µM, more than 50 µM, 19400 nM, not above 2 min and 0.921 min.
Consider `CC(=O)O[C@H]1[C@@H](OC(C)=O)[C@](C#N)(c2ccc3c(N)ncnn23)O[C@@H]1COC(=O)SC1CCCC1` [Compound 25, [(2R,3R,4R,5R)-4-acetoxy-5-(4-aminopyrrolo[2,1-f][1,2,4]triazin-7-yl)-5-cyano-2-(cyclopentylsulfanylcarbonyloxymethyl)tetrahydrofuran-3-yl]acetate], for which the midpoint of cytotoxicity in the data set “in vitro [1]”, the CC50, lay at 32.5 µM. Besides, the concentration for a half-maximal effect (EC50) in data set [2] is 4.02 µM; in data set [5] it was 1250 nM. Also, the values for the half-life at 2 μM in “in vitro [3]” and in “in vitro [4]” were not above 2 min and 1.14 min, respectively. Moreover, the “STA Human Plasma 37” value in data set [6] was found to be 72.169.
